Laboratory results published in patent US10752587B2, “Homobispiperidinyl derivatives as liver X receptor beta agonists, compositions and their use” (Merck Sharp & Dohme Corp., priority 2015, dated 2020).
Like-named read-outs stand apart in the source and are kept apart here.

How the values were obtained:
[1] = target: T1, glutathione-S-transferase (GST) tagged LXRalpha LBD (ligand binding domain) (Homo sapiens, UniProt Q13133); assay: LanthaScreen TR-FRET Liver X Receptor Coactivator Assay, co-activator recruitment to LXRalpha LBD; assay type: biochemical
T1 construct: purchased Invitrogen pv4655
T1 sequence (Q13133 209-447 limits assumed): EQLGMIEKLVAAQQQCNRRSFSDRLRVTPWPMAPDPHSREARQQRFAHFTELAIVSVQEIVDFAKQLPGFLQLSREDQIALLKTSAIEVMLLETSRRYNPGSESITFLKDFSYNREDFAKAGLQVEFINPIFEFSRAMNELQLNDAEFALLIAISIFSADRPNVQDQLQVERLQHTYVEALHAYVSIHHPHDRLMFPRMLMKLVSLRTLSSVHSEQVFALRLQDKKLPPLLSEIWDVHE
Summary of the method: (§1)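 Compound-induced coactivator recruitment by the GST-fused ligand binding domain, detected as TR-FRET between Tb-labelled anti-GST antibody and fluorescein-tagged coactivator peptide after room-temperature incubation. IP and Emax expressed versus T0901317 as reference agonist.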

[2] = target: T2, glutathione-S-transferase (GST) tagged LXRbeta LBD (ligand binding domain) (Homo sapiens, UniProt P55055); assay: LanthaScreen TR-FRET Liver X Receptor Coactivator Assay, co-activator recruitment to LXRbeta LBD; assay type: biochemical
T2 construct: purchased Invitrogen pv4658.pps
T2 sequence (P55055 222-460 limits assumed): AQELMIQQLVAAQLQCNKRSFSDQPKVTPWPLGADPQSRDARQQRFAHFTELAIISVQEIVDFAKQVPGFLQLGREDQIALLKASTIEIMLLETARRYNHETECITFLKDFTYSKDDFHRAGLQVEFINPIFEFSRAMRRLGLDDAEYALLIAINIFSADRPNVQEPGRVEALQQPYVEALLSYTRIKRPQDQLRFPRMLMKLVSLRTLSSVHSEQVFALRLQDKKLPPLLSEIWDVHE
Summary of the method: as §1

[3] = efficacy at max dose, in relation to reference dual agonist T0901317, read-out: LXR alpha Activity @ max dose (%)
[4] = potency (Inflection Point, IP), co-activator recruitment to LXRalpha LBD, in relation to T0901317
[5] = efficacy at max dose, in relation to reference dual agonist T0901317, read-out: LXR beta Activity @ max dose (%)
[6] = potency (Inflection Point, IP), co-activator recruitment to LXRbeta LBD, in relation to T0901317, read-out: LXR beta IP
[7] = potency (Inflection Point, IP), co-activator recruitment to LXRalpha LBD, in relation to T0901317, read-out: LXR alpha IP
[8] = efficacy in relation to reference dual agonist T0901317, read-out: LXR alpha Activity @ max dose
[9] = co-activator recruitment to GST-LXRbeta LBD, TR-FRET, read-out: LXR beta IP (Inflection Point, potency)
[10] = efficacy in relation to reference dual agonist T0901317, read-out: LXR beta Activity @ max dose
[11] = efficacy at max dose, in relation to reference dual agonist T0901317

Structure (SMILES)	Emax [1, 3] [%]	LXR alpha IP (nM) [1, 4]	Emax [2, 5] [%]	EC50 [2, 6] [nM]	EC50 [1, 7] [nM]	also measured
COc1cccc(C(O)(C(=O)N2CCC(CCC3CCN(c4ccc(C(=O)N(C)C)c(Cl)c4)CC3)CC2)C(F)(F)F)c1 (centres unmarked) [Example 2-163, 2-chloro-N,N-dimethyl-4-[4-(2-{1-[3,3,3-trifluoro-2-hydroxy-2-(3-methoxyphenyl)propanoyl]piperidin-4-yl}ethyl)piperidin-1-yl]benzamide]	0	NO IP	39	728	–	–
CCc1cccc([C@@](O)(C(=O)N2CCC(CC3CCN(c4ccc(C(=O)N(C)C)c(Cl)c4)CC3)CC2)C(F)(F)F)c1 [Example 2-113, 2-chloro-4-[4-({1-[(2R)-2-(3-ethyl-phenyl)-3,3,3-trifluoro-2-hydroxy-propanoyl]piperidin-4-yl}methyl)piperidin-1-yl]-N,N-dimethyl-benzamide]	4	NO IP	36	15	–	–
CN(Cc1ccon1)C(=O)c1ccc(N2CCC(CC3CCN(C(=O)[C@](O)(c4ccccc4)C(F)(F)F)CC3)CC2)cc1Cl [Example 4-10, 2-chloro-N-(isoxazol-3-ylmethyl)-N-methyl-4-[4-({1-[(2R)-3,3,3-trifluoro-2-hydroxy-2-phenylpropanoyl]piperidin-4-yl}methyl)piperidin-1-yl]benzamide]	30	–	62	8	246	–
COc1cccc([C@@](O)(C(=O)N2CCC(CC3(C)CCN(c4ccc(C(=O)N(C)C)c(Cl)c4)CC3)CC2)C(F)(F)F)c1 [Example 3-1, (R)-2-chloro-N,N-dimethyl-4-(4-methyl-4-((1-(3,3,3-trifluoro-2-hydroxy-2-(3-methoxyphenyl)propanoyl)piperidin-4-yl)methyl)piperidin-1-yl)benzamide]	5	NO IP	–	–	–	EC50 ([2]; LXR beta IP (nM), potency (Inflection Point, IP), co-activator recruitment to LXRbeta LBD, in relation to T0901317): 35 nM; Emax ([2]; read-out: LXR beta Activity @ max dose (%)): 63%
CN(C)C(=O)c1ccc(N2CCC(CC3CCN(S(=O)(=O)c4cc(F)ccc4F)CC3)CC2)cc1Cl [Example 13-5, 2-chloro-4-[4-({1-[(2,5-difluorophenyl)-sulfonyl]piperidin-4-yl}methyl)piperidin-1-yl]-N,N-dimethylbenzamide]	–	–	–	–	–	EC50 ([1]; co-activator recruitment to GST-LXRalpha LBD, TR-FRET, read-out: LXR alpha IP (Inflection Point, potency)): 590 nM; Emax [1, 8]: 33%; EC50 [2, 9]: 52 nM; Emax [2, 10]: 63%
COc1cccc(C(O)(C(=O)N2CCC(CC3CCN(c4ccc(C(=O)N(C)C)c(Cl)c4)CC3)CC2)C(F)(F)F)c1F (centres unmarked) [Example 2-41, 2-chloro-N,N-dimethyl-4-[4-({1-[3,3,3-trifluoro-2-(2-fluoro-3-methoxyphenyl)-2-hydroxy-propanoyl]piperidin-4-yl}methyl)piperidin-1-yl]benzamide]	10	NO IP	63	14	–	–
CN(C)C(=O)c1ccc(N2CCC(CC3CCN(C(=O)C(O)(Cc4ccccc4)C(F)(F)F)CC3)CC2)cc1Cl (centres unmarked) [Example 2-36, 4-(4-{[1-(2-benzyl-3,3,3-trifluoro-2-hydroxy-propanoyl)piperidin-4-yl]methyl}piperidin-1-yl)-2-chloro-N,N-dimethyl-benzamide]	43	–	126	110	1060	–
CN(C)C(=O)c1ccc(N2CCC(CC3CCN(C(=O)C(F)(F)c4cccc(Cl)c4)CC3)CC2)nc1Cl [Example 7-81, 2-chloro-6-[4-({1-[(3-chlorophenyl) (difluoro)acetyl]piperidin-4-yl}methyl)piperidin-1-yl]-N,N-dimethylpyridine-3-carboxamide]	19	NO IP	51	206	–	–
CNC(=O)c1ccc(N2CCC(OC3CCN(C(=O)C(O)(c4cccc(Cl)c4)C(F)(F)F)CC3)CC2)cc1Cl (centres unmarked) [Example 7-31, 2-chloro-4-[4-({1-[2-(3-chlorophenyl)-3,3,3-trifluoro-2-hydroxypropanoyl]piperidin-4-yl}oxy)piperidin-1-yl]-N-methylbenzamide]	40	–	112	52	1580	–
COc1cccc([C@@](O)(C(=O)N2CCC(CC3CCN(c4ccc(C(=O)N(C)C)c(Cl)c4)CC3)CC2)C(F)(F)F)c1 [Example 2-35, 2-chloro-N,N-dimethyl-4-[4-({1-[(2R)-3,3,3-trifluoro-2-hydroxy-2-(3-methoxyphenyl)propanoyl]piperidin-4-yl}methyl)piperidin-1-yl]benzamide]	6	NO IP	44	8	–	–
COc1cccc([C@@](O)(C(=O)N2CCC(CC3CCN(c4ccc(C(=O)N(C)C)c(C)n4)CC3)CC2)C(F)(F)F)c1 [Example 7-8, N,N,2-trimethhyl-6-[4-({1-[(2R)-3,3,3-trifluoro-2-hydroxy-2-(3-methoxyphenyl)propanoyl]piperidin-4-yl}methyl)piperidin-1-yl]pyridine-3-carboxamide]	–	–	–	12	–	LXR alpha Activity @ max dose (%) [1, 11]: 6%; LXR beta Activity @ max dose (%) [2, 11]: 53%
CN(C)C(=O)c1ccc(N2CCC(CC3CCN(S(=O)(=O)c4cc(F)cc(C(F)(F)F)c4)CC3)CC2)cc1Cl [Example 13-15, 2-chloro-4-{4-[(1-{[3-fluoro-5-(trifluoro-methyl)phenyl]-sulfonyl}piperidin-4-yl)methyl]piperidin-1-yl}-N,N-dimethylbenzamide]	–	–	–	–	–	LXR alpha IP (Inflection Point, potency) ([1]; co-activator recruitment to GST-LXRalpha LBD, TR-FRET): NO IP; Emax [1, 8]: 0%; EC50 [2, 9]: 171 nM; Emax [2, 10]: 32%
CN(C)C(=O)c1ccc(N2CCC(CC3CCN(C(=O)C(N)(c4ccccc4)C(F)(F)F)CC3)CC2)nc1Cl (centres unmarked) [Example 7-103, 6-(4-{[1-(2-amino-3,3,3-trifluoro-2-phenylpropanoyl)piperidin-4-yl]methyl}piperidin-1-yl)-2-chloro-N,N-dimethylpyridine-3-carboxamide]	47	–	122	31	1680	–
CN(C)C(=O)c1ccc(N2CCC(CC3CCN(C(=O)[C@@](O)(c4ccccc4)C(F)(F)F)CC3)CC2)nc1Cl [Example 7-62, 2-chloro-N,N-dimethyl-6-[4-({1-[(2S)-3,3,3-trifluoro-2-hydroxy-2-phenylpropanoyl]piperidin-4-yl}methyl)piperidin-1-yl]pyridine-3-carboxamide]	31	–	119	82	1350	–
COc1cccc([C@](N)(C(=O)N2CCC(CC3CCN(c4ccc(C(=O)N(C)C)c(Cl)c4)CC3)CC2)C(F)(F)F)c1 [Example 2-119, 4-[4-({1-[(2S)-2-amino-3,3,3-trifluoro-2-(3-methoxy-phenyl)propanoyl]piperidin-4-yl}methyl)piperidin-1-yl]-2-chloro-N,N-dimethyl-benzamide]	11	NO IP	99	208	–	–
Cc1cccc([C@@](O)(C(=O)N2CCC(CC3CCN(c4ccc(C(=O)N(C)C)c(Cl)c4)CC3)CC2)C(F)(F)F)c1 [Example 2-112, 2-chloro-N,N-dimethyl-4-[4-({1-[(2R)-3,3,3-trifluoro-2-hydroxy-2-(3-methylphenyl)propanoyl]piperidin-4-yl}methyl)piperidin-1-yl]benzamide]	10	NO IP	44	8	–	–
O=C(c1ccc(N2CCC(CC3CCN(C(=O)[C@](O)(c4ccccc4)C(F)(F)F)CC3)CC2)cc1Cl)N1C2CCC1CC2 [Example 4-5, (2R)-3-[4-({1-[4-(7-azabicyclo[2.2.1]hept-7-ylcarbonyl)-3-chlorophenyl]piperidin-4-yl}methyl)piperidin-1-yl]-1,1,1-trifluoro-3-oxo-2-phenylpropan-2-ol]	29	–	53	59	401	–
Cc1cc(N2CCC(CC3CCN(C(=O)[C@](O)(c4cccc(C(C)C)c4)C(F)(F)F)CC3)CC2)ccc1C(=O)N(C)C [Example 2-149, N,N,2-trimethyl-4-{4-[(1-{(2R)-3,3,3-trifluoro-2-hydroxy-2-[3-(1-methyl-ethyl)phenyl]propanoyl}piperidin-4-yl)methyl]piperidin-1-yl}benzamide]	14	NO IP	54	20	–	–
